Measured values from US6426340B1, “Prevention and treatment of colorectal cancer by 6-fluoroursodeoxycholic acid (6-FUDCA)” (Novartis AG, priority 1996, dated 2002).
Marks after values point to notes of the source that are not given here.

How the values were obtained:
[1] = tested on: aberrant crypt foci (ACF) in AOM rat model; experiment: Development of ACF in AOM rat model, 5 weeks study; type: in vivo, Male albino Fischer-344 rats; details: diet with UDCA 0.4%, 6-FUDCA 0.4% or piroxicam 75 ppm, means ± Std. Dev., N=10
Text: Animals. Male albino Fischer-344 rats, initially weighing approximately 90-130 g, were used in these experiments. All diets were obtained from Dyets, Inc. (Bethlehem, Pa.). On arrival, the animals were quarantined for 1 week and then divided into the following experimental groups: Group 1—Standard AIN-76 diet only with no added agents (control group). Group 2—AIN-76 diet plus UDCA 0.4%. Group 3—AIN-76 diet plus 6-FUDCA 0.4%. Group 4—AIN-76 diet plus piroxicam 75 ppm (included for a known positive drug control). Protocol of Study. All rats were fed their assigned diets for 2 weeks, following which 10 rats in each group (except control group) were given s.c. injections of AOM (Sigma Chemical Co.; 15 mg/kg body weight) once a week for 2 weeks, while 5 rats received AOM vehicle. Control rats received AOM vehicle only. A week later (at week 3) rats received a second dose of carcinogen (AOM 15 mg/kg) while control rats received AOM vehicle. Each group was then maintained on their respective experimental diet for an additional 3 weeks. At this time, day 42, the rats were sacrificed; their colons were removed, opened, washed with normal saline, and examined macroscopically and microscopically for the presence of tumors. Aberrant crypts were quantified by direct microscopic counting of methylene blue stained whole colon. Stool specimens were removed from the colon at the time of termination, snap frozen, and maintained frozen for subsequent analysis of fecal bile acids. Statistical Methods. The data were analyzed using the Aspin-Welch t-test, two sided. A value of P<0.05 was considered significant.

[2] = tested on: aberrant crypt foci (ACF) in AOM rat model; experiment: Development of ACF in AOM rat model, 12 weeks study; type: in vivo, Male albino Fischer-344 rats; details: for Multiplicity of ACF / Nr of ACF / Total AC count: AOM rat model, 12 weeks study, diet supplementation, means ± Std. Dev., N=12
Protocol: Animals. Male albino Fischer-344 rats, initially weighing approximately 90-130 g, were used in these experiments. All diets were obtained from Dyets, Inc. (Bethlehem, Pa.). On arrival, the animals were quarantined for 1 week and then divided into the following experimental groups: Protocol of Study. […] Control rats received AOM vehicle only. A week later (at week 3) rats received a second dose of carcinogen (AOM 15 mg/kg) while control rats received AOM vehicle. […] Aberrant crypts were quantified by direct microscopic counting of methylene blue stained whole colon. Stool specimens were removed from the colon at the time of termination, snap frozen, and maintained frozen for subsequent analysis of fecal bile acids. Statistical Methods. The data were analyzed using the Aspin-Welch t-test, two sided. A value of P<0.05 was considered significant. The protocol for this Example was the same as that for Example I except that 12 rats were included in each AOM-treated group and 6 rats in each control group. Carcinogen was administered on Days 14 and 21. The rats were then continued on the diets containing the experimental drugs for an additional 10 weeks. The following tables set forth the data obtained in the study.

[3] = Analysis of fecal bile acid levels in the diet-supplemented rats; type: in vivo
Protocol: Protocol of Study. All rats were fed their assigned diets for 2 weeks, following which 10 rats in each group (except control group) were given s.c. injections of AOM (Sigma Chemical Co.; 15 mg/kg body weight) once a week for 2 weeks, while 5 rats received AOM vehicle. Control rats received AOM vehicle only. A week later (at week 3) rats received a second dose of carcinogen (AOM 15 mg/kg) while control rats received AOM vehicle. Each group was then maintained on their respective experimental diet for an additional 3 weeks. At this time, day 42, the rats were sacrificed; their colons were removed, opened, washed with normal saline, and examined macroscopically and microscopically for the presence of tumors. Aberrant crypts were quantified by direct microscopic counting of methylene blue stained whole colon. Stool specimens were removed from the colon at the time of termination, snap frozen, and maintained frozen for subsequent analysis of fecal bile acids.
Therefore, 6-FUDCA enriches rat bile with therapeutic bile acid to a greater extent then can UDCA. Furthermore, 6-FUDCA reduces the formation of bile acids which are potentially toxic to the colonic mucosa.

[4] = Physicochemical properties of 6-FUDCA compared with UDCA
Text: Additionally, the retention time on C-18 reverse phase HPLC was different for the two fluorinated diastereoisomers. […] The invention relates to the single isomers or diastereoisomers of 6-FUDCA and mixtures thereof.

[5] = tested on: intestinal bacterial flora; details: 7-dehydroxylation by intestinal bacterial flora; cited from earlier work

CN1C(C(=O)Nc2ccccn2)=C(O)c2ccccc2S1(=O)=O [PIROXICAM, piroxicam]
Multiplicity of ACF [1]: 3.0 ± 0.2 | Nr of ACF [1]: 62.9 ± 9.4^b) | Total AC count [1]: 190.1 ± 30.7^b) | Multiplicity of ACF [2]: 3.4 ± 0.3 | Nr of ACF [2]: 156.3 ± 34.0^b) | Total AC count [2]: 625.3 ± 136.1^b)

C[C@H](CCC(=O)O)[C@H]1CC[C@H]2[C@@H]3[C@@H](O)C[C@@H]4C[C@H](O)CC[C@]4(C)[C@H]3CC[C@]12C [UDCA, ursodeoxycholic acid]
Multiplicity of ACF [1]: 2.0 ± 0.2^b) | Nr of ACF [1]: 108.1 ± 34.7 | Total AC count [1]: 218.3 ± 73.3^b) | Multiplicity of ACF [2]: 2.8 ± 0.2^b) | Nr of ACF [2]: 161.2 ± 37.8^b) | Total AC count [2]: 445.5 ± 87.4^b)

C[C@H](CCC(=O)O)[C@H]1CC[C@H]2[C@@H]3[C@@H](O)[C@H](F)[C@@H]4C[C@H](O)CC[C@]4(C)[C@H]3CC[C@]12C [6-FUDCA, 3α, 7βdihydroxy-6α-fluoro-5β-cholanoic acid]
Multiplicity of ACF [1]: 1.9 ± 0.1^b) | Nr of ACF [1]: 84.4 ± 16.3 | Total AC count [1]: 160.7 ± 34.6^b) | Multiplicity of ACF [2]: 2.7 ± 0.3^b) | Nr of ACF [2]: 130.1 ± 35.5^b) | Total AC count [2]: 350.6 ± 87.3^b) | Aberrant crypts per aberrant crypt focus (FIG. 3) ([2]; rats treated with 6-FUDCA, AOM model): aberrant crypt foci with fewer aberrant crypts | DC and hyoDC in the feces ([3]; 6-FUDCA rats compared with UDCA rats): less DC and hyoDC are seen in the feces of 6-FUDCA rats than in UDCA rats | Metabolism by bacteria in the gut ([3]; rat, fecal bile acid analysis): not metabolized by bacteria in the gut | Hydrophilicity (C-18 reverse phase HPLC) ([4]; 6-α-epimer, with respect to UDCA): increased hydrophilicity with respect to UDCA | Critical micellar concentration ([4]; compared with UDCA): slightly lower | Critical micellar pH ([4]; compared with UDCA): lower than that of UDCA | Water solubility ([4]; compared with UDCA): higher than that of UDCA | Resistance to bacterial dehydroxylation [5]: extremely resistant to bacterial dehydroxylation
